According to patent US20250188092A1, “RIFAMYCIN ANALOGS” (THE REGENTS OF THE UNIVERSITY OF MICHIGAN, priority 2021, published 2025):
pIC50: −log10 of the molar value. ≈ marks a conversion by molar mass, not a printed value.

Columns and labels:
[1] = target: T1, E. coli WT RNAP (Escherichia coli, UniProt P0A8V2); assay: biochemical
T1 construct: made in house

[2] = target: T2, E. coli D516V (RIF^R) RNAP (Escherichia coli, UniProt P0A8V2, D516V); assay: biochemical
T2 construct: made in house

[3] = target: T3, E. coli S531L (RIF^R) RNAP (Escherichia coli, UniProt P0A8V2, S531L); assay: biochemical
T3 construct: made in house

[4] = system: VERO cells (ATCC CRL-81); assay: Vero cell toxicity; format: cell-based; details: Chlorocebus sabaeus, Vero; 72 hours exposure
Protocol: Cytotoxicity for a mammalian cell line was determined by exposing VERO cells (ATCC CRL-81) to serial dilutions of test compounds for 72 hours, followed by addition of resazurin and measurement of fluorescence after 4 hours incubation (Choules, et al., Antimnicrob. Agents Chemother. 2019, 63, e02204-02218).

[5] = system: MTB H37Rv ATCC 27294; assay: MIC, microplate Alamar Blue assay (MABA); format: cell-based, Mycobacterium tuberculosis
[6] = system: M. tuberculosis H37Rv; assay: Minimum bactericidal concentration (MBC, CFU Assay); format: cell-based, Mycobacterium tuberculosis
[7] = system: DPX2 cells; details: for DPX2 Viability @ 6.25 μM: 24 h; for DPX2 Viability @ 25 μM: human
[8] = Mycobacterium tuberculosis, MTB H37Rv ATCC 27294, microplate Alamar Blue assay, lowest concentration giving ≥90% reduction in fluorescence

SMILES | pIC50 [1] | pIC50 [2] | pIC50 [3] | pIC50 [4] | MIC90 MABA Rel to RMP [5] | MIC ([5]; Mycobacterium tuberculosis, MTB H37Rv ATCC 27294, microplate Alamar Blue assay, lowest concentration giving ≥90% reduction in fluorescence, read-out: MIC90 MABA) | MBC99 Day 7 (CFU Assay) MBC99 Rel to RMP ([6]; CFU Assay MBC99 relative to rifampin (RMP = 1)) | MBC ([6]; Mycobacterium tuberculosis, 168 h, Day 7, M. tuberculosis H37Rv, ≥99% reduction in colony forming units, read-out: MBC99 Day 7 (CFU Assay) MBC99) | DPX2 Viability @ 6.25 μM [7] | DPX2 Viability @ 25 μM [7] | MIC90 [5, 8] | DPX2 Viability ([7]; 21 μM)
CO[C@H]1/C=C/O[C@@]2(C)Oc3c(C)c(O)c4c(=O)c(c5oc6cccc(OCCCCN7CCN(C(=O)OC(C)(C)C)CC7)c6nc-5c4c3C2=O)NC(=O)/C(C)=C\C=C\[C@H](C)[C@H](O)[C@@H](C)[C@@H](O)[C@@H](C)[C@H](OC(C)=O)[C@@H]1C [Compound 5c, Tert-Butyl 4-(4-{[(7S,9E,11S,12R,13S,14R,15R,16R,17S,18S,19E,21Z)-13-(acetyloxy)-2,15,17-trihydroxy-11-methoxy-3,7,12,14,16,18,22-heptamethyl-6,23,37-trioxo-8,27,38-trioxa-24,34-diazahexacyclo[23.11.1.1^4,7.0^5,36.0^26,35.0^28,33]octatriaconta-1(36)2,4,9,19,21,25,28(33)29,31,34-undecaen-32-yl]oxy}butyl)piperazine-1-carboxylate] | > 8.30 | 4.66 | 3.52 | 5.21 | 0.89 | 0.024 µM (≈ 0.025 µg/mL) | 0.77 | 0.1 µM (≈ 0.104 µg/mL) |  |  |  | 
CO[C@H]1/C=C/O[C@@]2(C)Oc3c(C)c(O)c4c(=O)c(c5oc6cccc(OCc7cccc(CN8CCN(C(C)=O)CC8)c7)c6nc-5c4c3C2=O)NC(=O)/C(C)=C\C=C\[C@H](C)[C@H](O)[C@@H](C)[C@@H](O)[C@@H](C)[C@H](OC(C)=O)[C@@H]1C [Compound 11c, (7S,9E,11S,12R,13S,14R,15R,16R,17S,18S,19E,21Z)-32-({3-[(4-Acetylpiperazin-1-yl)methyl]phenyl}methoxy)-2,15,17-trihydroxy-11-methoxy-3,7,12,14,16,18,22-heptamethyl-6,23,37-trioxo-8,27,38-trioxa-24,34-diazahexacyclo-[23.11.1.1^4,7.0^5,36.0^26,35.0^28,33]octatriaconta-1(36)2,4,9,19,21,25,28,30,32,34-undecaen-13-yl acetate] | 7.72 | 5.06 | 3.48 | < 5.10 | 1.4 |  |  |  | 103% | 70% | 0.058 µM | 
CCC(=O)N1CCN(Cc2cccc(COc3cccc4oc5c6c(=O)c7c(O)c(C)c8c(c7c-5nc34)C(=O)[C@@](C)(O/C=C/[C@H](OC)[C@@H](C)[C@@H](OC(C)=O)[C@H](C)[C@H](O)[C@H](C)[C@@H](O)[C@@H](C)/C=C/C=C(/C)C(=O)N6)O8)c2)CC1 [Compound 11d, (7S,9E,11S,12R,13S,14R,15R,16R,17S,1S,19E,21Z)-2,15,17-Trihydroxy-11-methoxy-3,7,12,14,16,18,22-heptamethyl-6,23,37-trioxo-32-{(3-[(4-propanoylpiperazin-1-yl)methyl]phenyl}methoxy)-8,27,38-trioxa-24,34-diazahexacyclo[23.11.1.1^4,7.0^5,36.0^26,35.0^28,33]octatriaconta-1(36)2,4,9,19,21,25,28,30,32,34-undecaen-13-yl acetate] | > 8.30 | 6.05 | 4.03 | 4.72 | 0.43 |  |  |  | 77% | 33% | 0.016 µM | 
CO[C@H]1/C=C/O[C@@]2(C)Oc3c(C)c(O)c4c(=O)c(c5oc6cccc(OCc7cccc(CN8CCN(C(=O)CN9CCOCC9)CC8)c7)c6nc-5c4c3C2=O)NC(=O)/C(C)=C\C=C\[C@H](C)[C@H](O)[C@@H](C)[C@@H](O)[C@@H](C)[C@H](OC(C)=O)[C@@H]1C [Compound 11f, (7S,9E,11S,12R,13S,14R,15R,16R,17S,1S,19E,21Z)-2,15,17-Trihydroxy-11-methoxy-3,7,12,14,16,18,22-heptamethyl-32-{[3-({4-[2-(morpholin-4-yl)acetyl]piperazin-1-yl}methyl)phenyl]methoxy}-6,23,37-trioxo-8,27,38-trioxa-24,34-diazahexacyclo[23.11.1.1^4,7.0^5,36.0^26,35.0^28,33]octatriaconta-1(36)2,4,9,19,21,25,28,30,32,34-undecaen-13-yl acetate] | 8.00 | 4.41 | < 3.30 | 5.21 | 0.65 |  |  |  | 103% |  | 0.024 µM | 57%
CO[C@H]1/C=C/O[C@@]2(C)Oc3c(C)c(O)c4c(=O)c(c5oc6cccc(OCc7cccc(CN8CCN(C(=O)Cc9ccccc9)CC8)c7)c6nc-5c4c3C2=O)NC(=O)/C(C)=C\C=C\[C@H](C)[C@H](O)[C@@H](C)[C@@H](O)[C@@H](C)[C@H](OC(C)=O)[C@@H]1C [Compound 11g, (7S,9E,11S,12R,13S,14R,15R,16R,17S,18S,19E,21Z)-2,15,17-Trihydroxy-11-methoxy-3,7,12,14,16,18,22-heptamethyl-6,23,37-trioxo-32-[(3-{[4-(2-phenylacetyl)-piperazin-1-yl]methyl}phenyl)methoxy]-8,27,38-trioxa-24,34-diazahexacyclo[23.11.1.1^4,7.0^5,36.0^26,35.0^28,33]octatriaconta-1(36)2,4,9,19,21,25,28,30,32,34-undecaen-13-yl acetate] | > 8.30 | 6.24 | 4.55 | < 4.49 | 0.30 |  |  |  | 88% | 70% | 0.011 µM | 
CO[C@H]1/C=C/O[C@@]2(C)Oc3c(C)c(O)c4c(=O)c(c5oc6cccc(OCc7ccc(CN8CCN(C(=O)CN9CCOCC9)CC8)cc7)c6nc-5c4c3C2=O)NC(=O)/C(C)=C\C=C\[C@H](C)[C@H](O)[C@@H](C)[C@@H](O)[C@@H](C)[C@H](OC(C)=O)[C@@H]1C [Compound 16c, (7S,9E,11S,12R,13S,14R,15R,16R,17S,18S,19E,21Z)-2,15,17-Trihydroxy-11-methoxy-3,7,12,14,16,18,22-heptamethyl-32-{[4-({4-[2-(morpholin-4-yl)acetyl]piperazin-1-yl}methyl)phenyl]methoxy}-6,23,37-trioxo-8,27,38-trioxa-24,34-diazahexacyclo[23.11.1.1^4,7.0^5,36.0^26,35.0^28,33]octatriaconta-1(36)2,4,9,19,21,25,28,30,32,34-undecaen-13-yl acetate] | 8.30 | 5.00 | 4.04 | < 5.10 | 0.51 |  |  |  | 96% | 55% | 0.019 µM | 
CO[C@H]1/C=C/O[C@@]2(C)Oc3c(C)c(O)c4c(=O)c(c5oc6cc(C)cc(N7CCN(CC(C)C)CC7)c6nc-5c4c3C2=O)NC(=O)/C(C)=C\C=C\[C@H](C)[C@H](O)[C@@H](C)[C@@H](O)[C@@H](C)[C@H](OC(C)=O)[C@@H]1C [Compound 30c, (7S,9E,11S,12R,13S,14R,15R,16R,17S,18S,19E,21Z)-2,15,17-Trihydroxy-11-methoxy-3,7,12,14,16,18,22,30-octamethyl-32-[4-(2-methylpropyl)piperazin-1-yl]-6,23,37-trioxo-8,27,38-trioxa-24,34-diazahexacyclo[23.11.1.1^4,7.0^5,36.0^26,35.0^28,33]octatriaconta-1(36)2,4,9,19,21,25,28,30,32,34-undecaen-13-yl acetate] | 8.22 | 5.00 | 3.89 | < 5.10 | <0.6 |  |  |  | 93% | 49% | < 0.016 µM | 
CO[C@H]1/C=C/O[C@@]2(C)Oc3c(C)c(O)c4c(=O)c(c5oc6cc(C=Nc7ccc(N8CCOCC8)cc7)cc(N7CCN(C)CC7)c6nc-5c4c3C2=O)NC(=O)/C(C)=C\C=C\[C@H](C)[C@H](O)[C@@H](C)[C@@H](O)[C@@H](C)[C@H](OC(C)=O)[C@@H]1C [Compound 32, (7S,9E,11S,12R,13S,14R,15R,16R,17S,18S,19E,21Z)-2,15,17-trihydroxy-11-methoxy-3,7,12,14,16,18,22-heptamethyl-32-(4-methylpiperazin-1-yl)-30-{N-[4-(morpholin-4-yl)phenyl]carboximidoyl}-6,23,37-trioxo-8,27,38-trioxa-24,34-diazahexacyclo[23.11.1.1^4,7.0^5,36.0^26,35.0^28,33]octatriaconta-1,3,5(36)9,19,21,25,28,30,32,34-undecaen-13-yl acetate] | 8.00 | 4.52 | 3.48 | < 5.10 | 1.74 |  |  |  | 116% | 100% | 0.047 µM | 
